In article PMC6680850, “Anion Inhibition Profile of the β-Carbonic Anhydrase from the Opportunist Pathogenic Fungus Malassezia restricta Involved in Dandruff and Seborrheic Dermatitis” (Metabolites, 2019):
Structures can show the parent of a compound that is named as a salt. Where two headings read alike, the source gives them in different places.

How the values were obtained:
[1] = molecular target: β-CA from Malassezia restricta (MreCA) (Malassezia restricta, UniProt A0A3G2S4B9); assay: biochemical; assay type: biochemical
[2] = molecular target: β-CA from Malassezia globosa (MgCA); set-up: method as in PMID 29152053; details: cited from earlier work
[3] = molecular target: hCA I; details: cited from earlier work
[4] = molecular target: hCA II; details: cited from earlier work; for Ki: pH 8.3
[5] = CO2 hydration reaction, 20 °C, pH 8.3, stopped flow, ref [31]

β-CA from Malassezia restricta (MreCA), sequence (A0A3G2S4B9 1-238): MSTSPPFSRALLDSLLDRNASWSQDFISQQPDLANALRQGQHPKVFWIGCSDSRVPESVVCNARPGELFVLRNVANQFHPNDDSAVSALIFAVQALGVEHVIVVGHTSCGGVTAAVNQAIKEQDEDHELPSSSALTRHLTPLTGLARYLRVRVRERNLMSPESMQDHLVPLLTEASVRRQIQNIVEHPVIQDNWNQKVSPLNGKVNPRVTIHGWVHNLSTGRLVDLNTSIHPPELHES

Compound | Ki ([1]; pH 8.3, read-out: KI MreCA) [mM] | Ki ([2]; pH 8.3) [mM] | Ki [2, 5] [mM] | further results
OB1OB2OB(O)OB(O1)O2 [B4O7^2−, tetraborate] | 0.4 | 8.45 | – | –
[Br-].[K+] [Br^−, bromide] | > 50 | 18.6 | – | Ki ([3]; pH 8.3): 4 mM; Ki [4]: 63 mM
O=S(=O)(O)C(F)(F)F [CF3SO3^−, trifalate] | 4.5 | – | 2.28 | –
N#CO [CNO^−, cyanate] | > 50 | 6.81 | – | –
O=C(O)O [CO3^2, carbonate] | > 50 | > 100 | – | –
S=C(S)S [CS3^2−, trithiocarbonate] | 0.92 | – | 1.77 | Ki [3, 5]: 0.0087 mM
[O-][Cl+3]([O-])([O-])O [ClO4^−, perchlorate] | 9.2 | > 100 | – | –
Cl [Cl^−, chloride] | > 50 | 7.98 | – | Ki ([3]; pH 8.3): 6 mM
CCN(CC)C(=S)S [Et2NCS2^−, diethyldithiocarbamate] | – | – | 0.3 | Ki [1]: 0.075 mM; Ki [3, 5]: 0.00079 mM
F [F^−, fluoride] | > 50 | 7.13 | – | –
O=C(O)O [HCO3^−, bicarbonate] | 0.86 | 0.59 | – | –
O=S(O)O [HSO3^−, bisulfite] | > 50 | – | > 100 | Ki [3, 5]: 18 mM
I [I^−, iodide] | 8.6 | – | 8.73 | Ki [3, 5]: 0.3 mM
NS(N)(=O)=O [Inhibitor H2NSO2NH2, sulfamide] | 0.72 | – | 0.094 | –
[N-]=[N+]=[N-] [N3^−, azide] | > 50 | 45.2 | – | inhibition of hCA II in words [4]: well inhibited
NS(=O)(=O)O [NH2SO3H, sulfamic acid] | 7.7 | – | 0.083 | Ki [3, 5]: 0.021 mM
O=S(=O)(O)NS(=O)(=O)O [NH(SO3)2^2−, iminodisulfite] | > 50 | – | 21.4 | Ki [3, 5]: 0.31 mM

Compound | Ki ([1]; pH 8.3, read-out: KI MreCA) [mM] | Ki ([2]; pH 8.3) [mM] | Ki [2, 5] [mM] | further results
O=NO [NO2^−, nitrite] | > 50 | 7.56 | – | –
O=[N+]([O-])O [NO3^−, nitrate] | 9 | – | 8.13 | Ki [3, 5]: 7 mM
O=P(O)(O)OP(=O)(O)O [P2O7^2−, pyrophosphate] | > 50 | – | 6.03 | Ki [3, 5]: 25.8 mM
F[P-](F)(F)(F)(F)F [PF6^−, esafluorofosfato] | 3.9 | – | 6.47 | –
O=[As](O)(O)c1ccccc1 [PhAsO3H2, phenylarsonic acid] | – | 0.09 | – | Ki ([3]; pH 8.3): 31.7 mM; Ki [4]: 49.2 mM
OB(O)c1ccccc1 [PhB(OH)2, phenylboronic acid] | – | 0.089 | – | Ki [1]: 8.7 mM; inhibition of hCA I in words [3]: not well inhibited; Ki ([3]; pH 8.3): 58.6 mM
[O]=[Re](=[O])(=[O])[OH] [ReO4^−, perrhenate] | > 50 | – | 16.7 | –
[O]=[Ru](=[O])(=[O])=[O] [RuO4^−, perruthenate] | 7.4 | – | 8.82 | –
O=S(=O)(O)OOS(=O)(=O)O [S2O8^2−, peroxydisulfate] | > 50 | – | > 100 | –
N#CS [SCN^−, thiocyanate] | > 50 | 8.39 | – | –
O=S(=O)(O)O [SO4^2−, sulfate] | – | 19.5 | – | –
N#C[SeH] [SeCN^−, selenocyanate] | 0.65 | 1.73 | – | Ki ([3]; pH 8.3): 0.085 mM
O=[Se](=O)(O)O [SeO4^2−] | 1.7 | 7.41 | – | –
[O]=[Sn]([OH])[OH] [SnO3^2−, stannate] | 0.56 | 5.07 | – | –
O=[Te](=O)(O)O [TeO4^2−, tellurate] | 0.56 | 5.75 | – | Ki ([3]; pH 8.3): 0.66 mM
[O]=[V]([OH])([OH])[O][V](=[O])([OH])[OH] [V2O7^2−, divanadate] | > 50 | – | 6.89 | Ki [3, 5]: 0.54 mM
osmate [OsO5^2−] | 8.5 | 6.16 | – | –
